Measurements: ChEMBL document CHEMBL2069241, “Isosteric replacements for benzothiazoles and optimisation to potent Cathepsin K inhibitors free from hERG channel inhibition” (Bioorg Med Chem Lett, 2012)
Converted amounts (≈) assume the structure as drawn.

What was measured:
physchem [1] = details: buffer, pH 7.4
physchem [2] = details: buffer, pH 7.4; remark: listed apart in the source
[3] = Volume of distribution at steady state in Han Wistar rat at 1 mg/kg, iv and 2 mg/kg, po; format: ADME, organism-based; details: in vivo, read-out: Vdss
[4] = Oral bioavailability in Han Wistar rat at 2 mg/kg; format: ADME, organism-based; details: in vivo
[5] = Volume of distribution at steady state in beagle dog at 1 mg/kg, iv and 1 mg/kg, po; format: ADME, organism-based, Canis lupus familiaris; details: in vivo, read-out: Vdss
[6] = Oral bioavailability in beagle dog at 1 mg/kg; format: ADME, organism-based, Canis lupus familiaris; details: in vivo

SMILES | logD (physchem [1]) | solubility (physchem [2]) [µM] | Vd [3] [L/kg] | bioavailability [4] [%] | Vd [5] [L/kg] | bioavailability [6] [%]
N#CC1(NC(=O)[C@@H]2CCCC[C@H]2C(=O)N2CCN(c3nc(-c4ccccc4)cs3)CC2)CC1 | 3.5 | 96 (≈ 44.5 µg/mL) |  |  |  | 
N#CC1(NC(=O)[C@@H]2CCCC[C@H]2C(=O)N2CCN(c3nc4ccccc4s3)CC2)CC1 | 2.6 | 1000 (≈ 438 µg/mL) | 1.5 | 20 | 1.5 | 78
Cc1sc(N2CCN(C(=O)[C@@H]3CCCC[C@H]3C(=O)NC3(C#N)CC3)CC2)nc1C(F)(F)F | 2.9 |  |  |  |  | 
N#CC1(NC(=O)[C@@H]2CCCC[C@H]2C(=O)N2CCN(c3nc(C(F)(F)F)c(Cl)s3)CC2)CC1 | 3.4 |  |  |  |  | 
CS(=O)(=O)c1ccc2nc(N3CCN(C(=O)[C@@H]4CCCC[C@H]4C(=O)NC4(C#N)CC4)CC3)sc2c1 | 1.5 |  | 0.54 | 3.3 |  | 
CC(C)(C#N)c1cnc(N2CCN(C(=O)[C@@H]3CCCC[C@H]3C(=O)NC3(C#N)CC3)CC2)s1 | 1.9 | 2600 (≈ 1180 µg/mL) |  |  |  | 
N#CC1(NC(=O)[C@@H]2CCCC[C@H]2C(=O)N2CCN(c3nc4c(s3)CCC4)CC2)CC1 | > 3 |  |  |  |  | 
N#CC1(NC(=O)[C@@H]2CCCC[C@H]2C(=O)N2CCN(c3nc4c(s3)COCC4)CC2)CC1 | 1.4 | > 3600 | 1.3 | 33 |  | 
CC1(C)COCc2sc(N3CCN(C(=O)[C@@H]4CCCC[C@H]4C(=O)NC4(C#N)CC4)CC3)nc21 | 2.4 | 1700 (≈ 802 µg/mL) |  |  |  | 

Now from value to compound:

logD (physchem [1]) | solubility (physchem [2]) [µM] | Vd [3] [L/kg] | bioavailability [4] [%] | Vd [5] [L/kg] | bioavailability [6] [%] | SMILES
1.3 | 3100 (≈ 1200 µg/mL) |  |  |  |  | N#CC1(NC(=O)[C@@H]2CCCC[C@H]2C(=O)N2CCN(c3nccs3)CC2)CC1
3.3 | 280 (≈ 124 µg/mL) |  |  |  |  | CC(C)(C)c1csc(N2CCN(C(=O)[C@@H]3CCCC[C@H]3C(=O)NC3(C#N)CC3)CC2)n1
2.4 |  |  |  |  |  | N#CC1(NC(=O)[C@@H]2CCCC[C@H]2C(=O)N2CCN(c3nc(C(F)(F)F)cs3)CC2)CC1
1.2 |  |  |  |  |  | N#Cc1cnc(N2CCN(C(=O)[C@@H]3CCCC[C@H]3C(=O)NC3(C#N)CC3)CC2)s1
1.6 | > 1600 |  |  |  |  | N#CC1(NC(=O)[C@@H]2CCCC[C@H]2C(=O)N2CCN(c3nc4ccncc4s3)CC2)CC1
1.7 | > 1500 | 0.8 | 17 |  |  | N#CC1(NC(=O)[C@@H]2CCCC[C@H]2C(=O)N2CCN(c3nc4cnccc4s3)CC2)CC1
1.4 | > 2000 |  |  |  |  | N#CC1(NC(=O)[C@@H]2CCCC[C@H]2C(=O)N2CCN(c3nc4ncccc4s3)CC2)CC1
